Structures can show the parent of a compound that is named as a salt.
With `S=C1CCc2cc(-c3cccnc3)cc3c2N1CC3` (as salt: HCl) [Example 22, 8-Pyridin-3-yl-1,2,5,6-tetrahydro-pyrrolo[3,2,1-ij]quinoline-4-thione] as the compound, how does the melting point read?
Its melting point is 283 °C.

With `O=C1CCc2cc(-c3cncc(O)c3)cc3c2N1CC3` (as salt: HCl) [Example 23, 8-(5-Hydroxypyridin-3-yl)-1,2,5,6-tetrahydro-pyrrolo[3,2,1-ij]quinolin-4-one] as the compound, how does the melting point read?
The melting point was greater than 300 °C.

With `CN1C(=O)CCc2cc(-c3cccnc3)ccc21` [Example 2, 1-Methyl-6-pyridin-3-yl-3,4-dihydro-1H-quinolin-2-one] as the compound, how does the melting point read?
Its melting point is 101 °C.

With `COc1cncc(-c2ccc3c(c2)CCC(=O)N3)c1` [Example 4, 6-(5-Methoxypyridin-3-yl)-3,4-dihydro-1H-quinolin-2-one] as the compound, how does the melting point read?
Its melting point is 215 °C.

With `CC(C)N1C(=O)CCc2cc(-c3cccnc3)ccc21` [Example 10, 1-Isopropyl-6-pyridin-3-yl-3,4-dihydro-1H-quinolin-2-one] as the compound, how does the melting point read?
The melting point was 101 °C.

Which melting point does the source give for `O=C1CCc2cc(-c3cccnc3)cc3c2N1CC3` [Example 11, 8-Pyridin-3-yl-1,2,5,6-tetrahydro-pyrrolo[3,2,1-ij]quinoline-4-one] here?
The melting point was 152 °C.

For `O=C1CCc2cc(-c3cccnc3)cc([N+](=O)[O-])c2N1` [Example 13, 8-Nitro-6-pyridin-3-yl-3,4-dihydro-1H-quinolin-2-one], which melting point is on record?
The melting point was 189 °C.

With `S=C1CCc2cc(-c3cccnc3)cc(Cl)c2N1` [Example 15, 8-Chloro-6-pyridin-3-yl-3,4-dihydro-1H-quinoline-2-thione] as the compound, how does the melting point read?
Its melting point is 175 °C.

Which melting point does the source give for `O=C1CCc2cc(-c3cccnc3)cc3c2N1CCC3` [Example 16, 9-Pyridin-3-yl-1,2,6,7-tetrahydro-5H-pyrido[3,2,1-ij]quinolin-3-one] here?
Its melting point is 123 °C.

Which melting point does the source give for `COc1cncc(-c2cc3c4c(c2)CCN4C(=O)CC3)c1` [Example 17, 8-(5-Methoxypyridin-3-yl)-1,2,5,6-tetrahydro-pyrrolo[3,2,1-ij]quinolin-4-one] here?
The melting point was 172 °C.

With `O=C1CCc2cc(-c3cncc4ccccc34)cc3c2N1CC3` [Example 18, 8-Isoquinolin-4-yl-1,2,5,6-tetrahydro-pyrrolo[3,2,1-ij]quinolin-4-one] as the compound, how does the melting point read?
The melting point was 185 °C.

For `O=C1CCc2cc(-c3cncc4ccccc34)cc3c2N1CCC3` [Example 20, 9-Isoquinolin-4-yl-1,2,6,7-tetrahydro-5H-pyrido[3,2,1-ij]quinolin-3-one], which melting point is on record?
The melting point was 159 °C.

For `O=C1CCc2cc(-c3cncnc3)ccc2N1` [Example 21, 6-Pyrimidin-5-yl-3,4-dihydro-1H-quinolin-2-one], which melting point is on record?
Its melting point is 233 °C.

For `CC1(C)CC(=O)N2CCc3cc(-c4cccnc4)cc1c32` [Example 24, 6,6-Dimethyl-8-pyridin-3-yl-1,2,5,6-tetrahydro-pyrrolo[3,2,1-ij]quinolin-4-one], which melting point is on record?
Its melting point is 180 °C.

With `CCOc1cncc(-c2cc3c4c(c2)CCN4C(=O)CC3)c1` [Example 25, 8-(5-Ethoxypyridin-3-yl)-1,2,5,6-tetrahydro-pyrrolo[3,2,1-ij]quinolin-4-one] as the compound, how does the melting point read?
Its melting point is 172 °C.

Which melting point does the source give for `O=C1CCc2cc(-c3cncc(C(F)(F)F)c3)cc3c2N1CC3` [Example 26, 8-(5-Trifluoromethylpyridin-3-yl)-1,2,5,6-tetrahydro-pyrrolo[3,2,1-ij]quinolin-4-one] here?
Its melting point is 212 °C.

For `O=C1CCc2cc(-c3cncc(F)c3)cc3c2N1CC3` [Example 27, 8-(5-Fluoropyridin-3-yl)-1,2,5,6-tetrahydro-pyrrolo[3,2,1-ij]quinolin-4-one], which melting point is on record?
The melting point was 158 °C.

Which melting point does the source give for `O=C1CCc2cc(-c3ccncc3)cc3c2N1CC3` [Example 29, 8-Pyridin-4-yl-1,2,5,6-tetrahydro-pyrrolo[3,2,1-ij]quinolin-4-one] here?
Its melting point is 174 °C.

With `O=C1CCc2cc(-c3cncnc3)cc3c2N1CC3` [Example 30, 8-Pyrimidin-5-yl-1,2,5,6-tetrahydro-pyrrolo[3,2,1-ij]quinolin-4-one] as the compound, how does the melting point read?
The melting point was 186 °C.

Reference: US8541404B2, “Inhibitors of the human aldosterone synthase CYP11B2” (ElexoPharm GmbH, priority 2009, dated 2013)
